# Results: patent publication US8802678B2, “Carbonylated (aza) cyclohexanes as dopamine D3 receptor ligands” (Bioprojet, priority 2006, dated 2014)
# Counter-ions that a name gives are not always drawn.
row,Compound,melting point
1,"Cc1ccccc1N1CCN(CC[C@H]2CC[C@H](NC(=O)CC#N)CC2)CC1 [Example 220, 2-Cyano-N-{4-[2-(4-o-tolylpiperazin-1-yl)ethyl]cyclohexyl}acetamide]",150 °C
2,"NC(=O)CCC(=O)N[C@H]1CC[C@H](CCN2CCN(c3ccccc3F)CC2)CC1 [Example 186, N-(4-{2-[4-(2-Fluorophenyl)piperazin-1-yl]ethyl}cyclohexyl)succinamide]",255 °C
3,N#CCCCC(=O)N[C@H]1CC[C@H](CCN2CC=C(c3cccc(C(F)(F)F)c3)CC2)CC1,102 °C
4,CC(=O)CN1CCC(CCN2CCN(c3cccc(-c4ccccc4)c3)CC2)CC1.Cl.Cl,235 °C
5,CC(=O)CN1CCC(CCN2CCN(c3cccc4c3CCC4)CC2)CC1.Cl.Cl,295 °C
6,CC(=O)CN1CCC(CCN2CCN(c3cc(C)cc(F)c3)CC2)CC1.Cl.Cl,273 °C
7,"O=C(N[C@H]1CC[C@H](CCN2CCN(c3cccc(C(F)(F)F)c3)CC2)CC1)C(F)F [Example 44, 2,2-Difluoro-N-(4-{2-[4-(3-trifluoromethylphenyl)piperazin-1-yl]ethyl}cyclohexyl)acetamide]",128 °C
8,"Cc1c(F)cccc1N1CCN(CC[C@H]2CC[C@H](NC(=O)CC#N)CC2)CC1 [Example 313, 2-Cyano-N-(4-{2-[4-(3-fluoro-2-methylphenyl)piperazin-1-yl]ethyl}cyclohexyl)acetamide]",174 °C
9,"O=C(N[C@H]1CC[C@H](CCN2CCN(c3ccc(F)cc3F)CC2)CC1)C1=COCC1 [Example 527, 4,5-Dihydrofuran-3-carboxylic acid (4-{2-[4-(2,4-difluorophenyl)piperazin-1-yl]ethyl}cyclohexyl) amide]",192 °C
10,"N#CCC(=O)N[C@H]1CC[C@H](CCN2CCN(c3cc(Cl)c(Cl)cc3Cl)CC2)CC1 [Example 717, 2-Cyano-N-(4-{2-[4-(2,4,5-trichlorophenyl)piperazin-1-yl]ethyl}cyclohexyl)acetamide]",200 °C
11,"CCC(O)c1cccc(N2CCN(CC[C@H]3CC[C@H](NC(=O)CCCC#N)CC3)CC2)c1 (stereo partly shown) [Example 540, 4-cyano-N-[4-(2-{4-[3-(1-hydroxypropyl)phenyl]piperazin-1-yl}ethyl)cyclohexyl]butanamide]",151 °C
12,CC(=O)CN1CCC(CCN2CCN(c3ccc(Cl)cc3Cl)CC2)CC1.Cl.Cl,283 °C
13,"N#CCC(=O)N[C@H]1CC[C@@H](CCN2CCN(c3cc(C(F)(F)F)ccc3F)CC2)CC1 [Example 586, 2-Cyano-N-(4-{2-[4-(2-fluoro-5-trifluoromethylphenyl)piperazin-1-yl]ethyl}cyclohexyl)acetamide]",152 °C
14,"CCOCC(=O)N[C@H]1CC[C@H](CCN2CCN(c3ccc(C)cc3)CC2)CC1 [Example 474, 2-Ethoxy-N-{4-[2-(4-p-tolylpiperazin-1-yl)ethyl]cyclohexyl}acetamide]",130 °C
15,"COCCCC(=O)N[C@H]1CC[C@H](CCN2CCN(c3cccc(C(F)(F)F)c3C)CC2)CC1 [Example 735, 4-Methoxy-N-(4-{2-[4-(2-methyl-3-trifluoromethylphenyl)piperazin-1-yl]ethyl}cyclohexyl)butanamide]",173 °C
16,"NC(=O)CCC(=O)N[C@H]1CC[C@H](CCN2CCN(c3cccc(F)c3)CC2)CC1 [Example 397, N-(4-{2-[4-(3-Fluorophenyl)-piperazin-1-yl]ethyl}cyclohexyl)-succinamide]",255 °C
17,CC(=O)CN1CCC(CCN2CC=C(c3ccccc3C)CC2)CC1.Cl.Cl,292 °C
18,"COCCCC(=O)N[C@H]1CC[C@H](CCN2CCN(c3ccc(Cl)c(C(F)(F)F)c3)CC2)CC1 [Example 755, N-(4-{2-[4-(4-Chloro-3-trifluoromethylphenyl)piperazin-1-yl]ethyl}cyclohexyl)-4-methoxybutanamide]",171 °C
19,COc1c(Cl)cccc1N1CCN(CCC2CCN(CC(C)=O)CC2)CC1.Cl.Cl,270 °C
20,"N#CCCCC(=O)N[C@H]1CC[C@H](CCN2CCN(c3ccc(C(F)(F)F)cc3)CC2)CC1 [Example 544, 4-Cyano-N-(4-{2-[4-(4-trifluoromethylphenyl)piperazin-1-yl]ethyl}cyclohexyl)butanamide]",207 °C
21,"Cc1cc(Cl)cc(N2CCN(CC[C@H]3CC[C@H](NC(=O)CC#N)CC3)CC2)c1 [Example 437, N-(4-{2-[4-(3-Chloro-5-methylphenyl)piperazin-1-yl]ethyl}cyclohexyl)-2-cyanoacetamide]",185 °C
22,Cc1ccccc1C1=CCN(CC[C@H]2CC[C@H](NC(=O)CCCC#N)CC2)CC1,140 °C
23,"COCC(=O)N[C@H]1CC[C@H](CCN2CCN(c3ccccc3)CC2)CC1 [Example 60, 2-Methoxy-N-{4-[2-(4-phenylpiperazin-1-yl)ethyl]-cyclohexyl}acetamide]",136 °C
24,CC(=O)CN1CCC(CCN2CCN(c3ccccc3Cl)CC2)CC1.Cl.Cl,265 °C
25,"N#CCC(=O)N[C@H]1CC[C@H](CCN2CCN(c3cccc(-c4ncco4)c3)CC2)CC1 [Example 530, 2-Cyano-N-(4-{2-[4-(3-oxazol-2-ylphenyl)piperazin-1-yl]ethyl}cyclohexyl)acetamide]",185 °C

row,Compound,melting point
1,CC(=O)CN1CCC(CCN2CCN(c3ccccc3C)CC2)CC1.Cl.Cl,289 °C
2,"CCOCC(=O)N[C@H]1CC[C@H](CCN2CCN(c3ccccc3Cl)CC2)CC1 [Example 132, N-(4-{2-[4-(2-Chlorophenyl)-piperazin-1-yl]ethyl}cyclohexyl)-2-ethoxyacetamide]",108 °C
3,COCCCC(=O)N[C@H]1CC[C@H](CCN2CC=C(c3ccc(F)cc3)CC2)CC1,201 °C
4,N#CCCCC(=O)N[C@H]1CC[C@H](CCN2CC=C(c3ccc(Cl)cc3)CC2)CC1,198 °C
5,"N#Cc1cccc(N2CCN(CC[C@H]3CC[C@H](NC(=O)C4=COCC4)CC3)CC2)c1 [Example 524, 4,5-Dihydrofuran-3-carboxylic acid (4-{2-[4-(3-cyanophenyl)piperazin-1-yl]ethyl}cyclohexyl) amide]",165 °C
6,CCOC(=O)CN1CCC(CCN2CCN(c3cccc(C(F)(F)F)c3)CC2)CC1.Cl.Cl,240 °C
7,"O=C(CC(F)(F)F)N[C@H]1CC[C@H](CCN2CCN(c3ccccc3)CC2)CC1 [Example 188, 3,3,3-Trifluoro-N-{4-[2-(4-phenylpiperazin-1-yl)ethyl]cyclohexyl}propanamide]",185 °C
8,"N#CCCCC(=O)N[C@H]1CC[C@H](CCN2CCN(c3ccc(F)cc3F)CC2)CC1 [Example 401, 4-Cyano-N-(4-{2-[4-(2,4-difluorophenyl)piperazin-1-yl]ethyl}cyclohexyl)butanamide]",167 °C
9,"O=C(N[C@H]1CC[C@H](CCN2CCN(c3cc(F)ccc3F)CC2)CC1)C1=CCCC1 [Example 441, Cyclopent-1-enecarboxylic acid (4-{2-[4-(2,5-difluorophenyl)-piperazin-1-yl]ethyl}cyclohexyl) amide]",209 °C
10,"N#CCCC(=O)N[C@H]1CC[C@H](CCN2CCN(c3cc(F)cc(Cl)c3)CC2)CC1 [Example 743, N-(4-{2-[4-(3-Chloro-5-fluorophenyl)piperazin-1-yl]ethyl}cyclohexyl)-3-cyanopropanamide]",148 °C
11,"CCC(=O)C(=O)N[C@H]1CC[C@H](CCN2CCN(c3ccccc3F)CC2)CC1 [Example 89, N-(4-{2-[4-(2-Fluorophenyl)-piperazin-1-yl]ethyl}cyclohexyl)-2-oxobutanamide]",156 °C
12,CC(=O)CN1CCC(CCN2CCN(c3ccc(F)cc3C)CC2)CC1.Cl.Cl,283 °C
13,"N#CCCCC(=O)N[C@H]1CC[C@H](CCN2CCN(c3cccc4cccnc34)CC2)CC1 [Example 262, 4-Cyano-N-{4-[2-(4-quinolin-8-ylpiperazin-1-yl)ethyl]cyclohexyl}butanamide]",180 °C
14,"CS(=O)(=O)c1cccc(N2CCN(CC[C@H]3CC[C@H](NC(=O)CC#N)CC3)CC2)c1 [Example 351, 2-Cyano-N-(4-{2-[4-(3-methanesulfonylphenyl)piperazin-1-yl]ethyl}cyclohexyl)acetamide]",195 °C
15,Cc1cc(N2CCN(CC[C@H]3CC[C@H](NC(=O)CCCC#N)CC3)CC2)ccc1F [Example 358],160 °C
16,"CCOCC(=O)N[C@H]1CC[C@H](CCN2CCN(c3cccc(C#N)c3)CC2)CC1 [Example 78, N-(4-{2-[4-(3-Cyanophenyl)-piperazin-1-yl]ethyl}cyclohexyl)-2-ethoxyacetamide trans/cis 75/25]",90 °C
17,Cl.Cl.O=C(CN1CCC(CCN2CCN(c3cccc(C(F)(F)F)c3)CC2)CC1)c1ccccc1,260 °C
18,N#CCC(=O)CN1CCC(CCN2CCN(c3cccc(C(F)(F)F)c3)CC2)CC1 (as salt: hydrochloride),160 °C
19,"N#CCC(=O)N[C@H]1CC[C@H](CCN2CCN(c3ccc4c(c3)OCCO4)CC2)CC1 [Example 316, 2-Cyano-N-(4-{2-[4-(2,3-dihydrobenzo[1,4]dioxin-6-yl)piperazin-1-yl]ethyl}cyclohexyl)acetamide]",208 °C
20,CC(=O)CN1CCC(CCN2CCN(c3ccccc3F)CC2)CC1.Cl.Cl,250 °C
21,"CCOC(=O)Nc1cccc(N2CCN(CCC3CCN(CC(C)=O)CC3)CC2)c1 [Example 777, [3-(4-{2-[1-(2-oxopropyl)piperidin-4-yl]ethyl}piperazin-1-yl)phenyl]carbamic acid ethyl ester]",118 °C
22,"CC(=O)NCC(=O)N[C@H]1CC[C@H](CCN2CCN(c3ccccc3F)CC2)CC1 [Example 134, 2-Acetylamino-N-(4-{2-[4-(2-fluorophenyl)piperazin-1-yl]ethyl}cyclohexyl)acetamide]",217 °C
23,"N#CCC(=O)N[C@H]1CC[C@H](CCN2CCN(c3ccc4c(c3)OCO4)CC2)CC1 [Example 315, N-{4-[2-(4-Benzo[1,3]dioxol-5-ylpiperazin-1-yl)ethyl]cyclohexyl}-2-cyanoacetamide]",226 °C
24,"N#CCC(=O)N[C@H]1CC[C@H](CCN2CCN(c3cc(Cl)cc(C(F)(F)F)c3)CC2)CC1 [Example 528, N-(4-{2-[4-(3-Chloro-5-trifluoromethylphenyl)piperazin-1-yl]ethyl}cyclohexyl)-2-cyanoacetamide]",172 °C
